Experimental data: publication PMC5781198 (Influenza and Other Respiratory Viruses, 2013)
“Also recorded” adds a separate entry of the source.

What was measured:
[1] = tested on: B/British Columbia/RV1383/2011 NA (T106N); type: biochemical, Influenza B virus (Yamagata)
[2] = target: B/Ontario/1256/2011 NA (G140R, N144K) (Influenza B virus, UniProt P27907, G140R/N143K); type: biochemical, Influenza B virus (Victoria)
[3] = tested on: A/Santiago/15706/2011 NA (G460S); type: biochemical, Influenza A(H1N1)pdm09 virus
[4] = target: B/Kenya/9528/2011 NA (M403V) (Influenza B virus, UniProt P27907, M402V); type: biochemical, Influenza B virus (Victoria)
[5] = target: B/Ontario/006876/2011 NA (H273Y) (Influenza B virus, UniProt P27907, H272Y); type: biochemical, Influenza B virus (Yamagata)
[6] = tested on: B/Ontario/006876/2011 NA (H273Y); conditions: cited from earlier work
[7] = tested on: A/Vietnam/108/2011 NA (F174V); type: biochemical, Influenza A(H1N1)pdm09 virus
[8] = tested on: A/Puerto Rico/05/2011 NA (D199N); type: biochemical, Influenza A(H1N1)pdm09 virus
[9] = tested on: A/Bolivia/603/2011 NA (D151G); type: biochemical, Influenza A(H3N2) virus
[10] = tested on: A/Alberta/RV1242/2011 NA (H275H/Y, D199D/N); type: biochemical, Influenza A(H1N1)pdm09 virus
[11] = target: B/Guatemala/16/2011 NA (S244P) (Influenza B virus, UniProt P27907, S243P); type: biochemical, Influenza B virus (Victoria)
[12] = target: B/Bangladesh/8008/2011 NA (I120V) (Influenza B virus, UniProt P27907, I119V); type: biochemical, Influenza B virus (Victoria)
[13] = tested on: A/Dominican Republic/5507/2011 NA (S247N); type: biochemical, Influenza A(H1N1)pdm09 virus
[14] = tested on: A/Bolivia/258/2011 NA (D199N); type: biochemical, Influenza A(H1N1)pdm09 virus
[15] = tested on: B/Bangladesh/4013/2011 NA (A136S); type: biochemical, Influenza B virus (Victoria)
[16] = tested on: A/Santiago/14689/2011 NA (N325K); type: biochemical, Influenza A(H1N1)pdm09 virus
[17] = target: B/Dominican Republic/5506/2011 NA (H273Y) (Influenza B virus, UniProt P27907, H272Y); type: biochemical, Influenza B virus (Victoria)

Structure (SMILES): CCC(CC)[C@H](NC(C)=O)[C@@H]1[C@H](O)[C@@H](C(=O)O)C[C@H]1N=C(N)N [Peramivir, peramivir]
- fold difference in IC50 [1]: 0·85 (2) fold
- fold difference in IC50 [2]: 210·68 (257) fold
- fold greater IC50 than the mean IC50 for the drug for all B viruses [2]: 277 fold
- susceptibility in words [2]: significantly reduced susceptibility
- fold difference in IC50 [3]: 0·26 (4) fold
- fold difference in IC50 [4]: 3·59 (4) fold
- fold difference in IC50 [5]: 33·49 (62) fold
- fold greater IC50 than the mean IC50 for the drug for all B viruses [5]: 44 fold
- susceptibility in words [6]: reduced susceptibility
- fold difference in IC50 [7]: 0·06 (1) fold
- fold difference in IC50 [8]: 0·21 (4) fold
- fold difference in IC50 [9]: 0·08 (1) fold
- IC50 relative to isolate A/Puerto Rico/09/2011 (dominant H275Y) [10]: approximately threefold less; also recorded: three times less resistant
- fold difference in IC50 [11]: 0·60 (1) fold
- susceptibility in words [11]: sensitive
- fold difference in IC50 [12]: 4·36 (5) fold
- fold difference in IC50 [13]: 0·15 (3) fold
- fold difference in IC50 [14]: 0·09 (2) fold
- fold difference in IC50 [15]: 4·77 (6) fold
- susceptibility in words [16]: mildly reduced sensitivity
- fold difference in IC50 [17]: 12·43 (15) fold
- fold greater IC50 than the mean IC50 for the drug for all B viruses [17]: 16 fold

Structure (SMILES): CC(=O)N[C@H]1[C@H]([C@H](O)[C@H](O)CO)OC(C(=O)O)=C[C@@H]1N=C(N)N [Zanamivir, zanamivir]
- susceptibility in words [2]: significantly reduced susceptibility
- susceptibility in words [11]: mild outlier
- susceptibility in words [16]: mildly reduced sensitivity
